Data as given in patent US10806726B2, “Methods of using indazole-3-carb oxamides and their use as Wnt/B-catenin signaling pathway inhibitors” (Samumed, LLC, priority 2016, dated 2020).

Assays:
[1] = tested on: TNFα production in THP-1 cells; experiment: Cytokine Production Assay, LPS-induced TNFα in THP-1 cells; format: cell-based; conditions: Homo sapiens; THP-1, LPS 50 ng/mL 5 hours, 2 independent assays; read-out: average EC50, inhibition of TNFα production
Protocol: THP-1 cells were cultured in basal media with 1% FBS for 24 hours before the start of the assay. THP-1 cells were plated at 6×10e^4 cells/well and treated with DMSO (vehicle control) or compound 175 at 10 μM highest test concentration and 2 to 3.5-fold serial dilutions up to 8 concentrations (10, 3.5, 1, 0.5, 0.1, 0.035, 0.01, 0.005 μM). For the TNFα assay, 50 ng/mL of LPS was added to the wells after 2 hours to induce cytokine production, and cells were incubated for 5 hours at 37° C. For the IL6 assay, 500 ng/ml of LPS was added after 2 hours and cells were incubated for 22 hours at 37° C. Plates were spun in a centrifuge for 1 minute at 10,000 rpm and supernatants were collected for ELISA. Supernatants were diluted 1:1 for the TNFα assay and 1:4 for the IL6 assay using the assay medium. ELISA was performed using Human TNF-α ELISA MAX™ Deluxe (Catalog #430204, Biolegend, San Diego, Calif.) and Human IL-6 ELISA MAX™ Deluxe (Catalog #430504, Biolegend, San Diego, Calif.) kits. […] Following several washes to remove unbound avidin-HRP, the TMB substrate was added and the plates were read on the Cytation 3 plate reader (Biotek Inc., Winooski, Vt.) at an absorbance of 450 nm with correction at 570 nm. […] Inhibition profile and EC50 was calculated using Prism 5 (GraphPad Software Inc, La Jolla, Calif., USA). […]

[2] = tested on: Wnt-responsive promoter driving firefly luciferase in SW480 cells; experiment: Wnt reporter (SP5 promoter-luciferase) screening assay in SW480 cells; format: cell-based; conditions: Homo sapiens, 24-40 h, top concentration ten micromolar
Method in brief: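 SW480 (APC-mutant colon) cells stably transduced with lentiviral SP5-promoter (eight TCF/LEF sites) firefly luciferase, ~10,000 cells/well. Signals normalized to DMSO controls for EC50 fitting.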

COc1ccc(NC(=O)c2n[nH]c3ccc(-c4cncc(CN5CCCCC5)c4)cc23)cn1 [compound 175, N-(6-Methoxypyridin-3-yl)-5-(5-(piperidin-1-ylmethyl)pyridin-3-yl)-1H-indazole-3-carboxamide]
EC50 [1]: 0.342 to 0.547 µM
EC50 [2]: 0.025 µM
